Assay results as given in PubChem BioAssay AID248 (DTP/NCI, 2004).
Toxic doses and inconclusive results are not listed. Cut-off read from the data, not from the text of the source: active = T/C of 150% or more; inactive = T/C below 125%.

Test system: L1210 leukemia ip in BDF1 mice, survival T/C
Assay: NCI In Vivo Anticancer Drug Screen. Data for tumor model L1210 Leukemia (intraperitoneal) in B6D2F1 (BDF1) mice
Details: endpoint: mean survival time, higher = longer survival
Procedure, shortened: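 Ratio derived from survival: compound-dosed mice over vehicle-dosed mice, all bearing a transplantable tumor.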

[1] = dose: 100.0 mg/kg/injection, schedule: Q01DX001 (ip), vehicle: saline with Tween-80
[2] = dose: 200.0 mg/kg/injection, schedule: Q01DX001 (ip), vehicle: saline with Tween-80
[3] = dose: 400.0 mg/kg/injection, schedule: Q01DX001 (ip), vehicle: saline with Tween-80
[4] = dose: 50.0 mg/kg/injection, schedule: Q01DX009 (ip), vehicle: saline
[5] = dose: 50.0 mg/kg/injection, schedule: Q04DX003 (ip), vehicle: saline
[6] = dose: 100.0 mg/kg/injection, schedule: Q04DX003 (ip), vehicle: saline
[7] = dose: 200.0 mg/kg/injection, schedule: Q04DX003 (ip), vehicle: saline
[8] = dose: 400.0 mg/kg/injection, schedule: Q04DX003 (ip), vehicle: saline
[9] = dose: 100.0 mg/kg/injection, schedule: Q01DX009 (ip), vehicle: saline with Tween-80
[10] = dose: 200.0 mg/kg/injection, schedule: Q01DX009 (ip), vehicle: saline with Tween-80
[11] = dose: 100.0 mg/kg/injection, schedule: Q01DX001 (ip), vehicle: saline
[12] = dose: 200.0 mg/kg/injection, schedule: Q01DX001 (ip), vehicle: saline
[13] = dose: 400.0 mg/kg/injection, schedule: Q01DX001 (ip), vehicle: saline
[14] = dose: 100.0 mg/kg/injection, schedule: Q04DX003 (ip), vehicle: saline with Tween-80
[15] = dose: 200.0 mg/kg/injection, schedule: Q04DX003 (ip), vehicle: saline with Tween-80
[16] = dose: 400.0 mg/kg/injection, schedule: Q04DX003 (ip), vehicle: saline with Tween-80

Measured: T/C

CN=NC(C)C
inactive: [1] 97 % of control | [2] 107 % of control | [3] 112 % of control

CN1CCC=C(CN2c3ccccc3Sc3ccc(Cl)cc32)C1
inactive: dose: 12.5 mg/kg/injection, schedule: Q01DX009 (ip), vehicle: saline 119 % of control | dose: 12.5 mg/kg/injection, schedule: Q04DX003 (ip), vehicle: saline 101 % of control | dose: 16.5 mg/kg/injection, schedule: Q04DX003 (ip), vehicle: saline 98 % of control | dose: 25.0 mg/kg/injection, schedule: Q01DX009 (ip), vehicle: saline 113 % of control | dose: 25.0 mg/kg/injection, schedule: Q04DX003 (ip), vehicle: saline 105 % of control | dose: 37.5 mg/kg/injection, schedule: Q04DX003 (ip), vehicle: saline 105 % of control | [4] 114 % of control | [5] 110 % of control

Cc1c2c(cc3c1CCC1(C)C3=CCC1C(C)CCC(C)C(C)C)CCCC2 (stereo unspecified)
inactive: [1] 93 % of control | [2] 95 % of control | [3] 91 % of control

C=CCCCCCCCCC(=O)N/N=C(/C)c1ccc(C)cc1
inactive: dose: 100.0 mg/kg/injection, schedule: Q04DX002 (ip), vehicle: Klucel (hydroxypropylcellulose) (HPC) 103 % of control | dose: 200.0 mg/kg/injection, schedule: Q04DX002 (ip), vehicle: Klucel (hydroxypropylcellulose) (HPC) 118 % of control | dose: 400.0 mg/kg/injection, schedule: Q04DX002 (ip), vehicle: Klucel (hydroxypropylcellulose) (HPC) 92 % of control

CN1C2CNC(=O)CC1C1CCC2C1 (stereo unspecified)
inactive: dose: 25.0 mg/kg/injection, schedule: Q04DX002 (ip), vehicle: saline 94 % of control | dose: 50.0 mg/kg/injection, schedule: Q04DX002 (ip), vehicle: saline 102 % of control | dose: 75.0 mg/kg/injection, schedule: Q01DX001 (ip), vehicle: carboxymethylcellulose (CMC) 106 % of control

CN(N=O)C(=O)NCCc1ccc(OC(=O)N(C)N=O)cc1
inactive: dose: 0.78 mg/kg/injection, schedule: Q01DX Z (ip), vehicle: carboxymethylcellulose (CMC) 98 % of control | dose: 1.56 mg/kg/injection, schedule: Q01DX Z (ip), vehicle: carboxymethylcellulose (CMC) 110 % of control | dose: 3.12 mg/kg/injection, schedule: Q01DX Z (ip), vehicle: carboxymethylcellulose (CMC) 95 % of control | dose: 6.25 mg/kg/injection, schedule: Q01DX Z (ip), vehicle: carboxymethylcellulose (CMC) 113 % of control | dose: 12.5 mg/kg/injection, schedule: Q01DX Z (ip), vehicle: carboxymethylcellulose (CMC) 118 % of control | dose: 25.0 mg/kg/injection, schedule: Q01DX Z (ip), vehicle: carboxymethylcellulose (CMC) 124 % of control | dose: 50.0 mg/kg/injection, schedule: Q01DX Z (ip), vehicle: carboxymethylcellulose (CMC) 91 % of control

O/N=C(/C(=N/O)c1ccccc1)c1ccccc1.O/N=C(/C(=N/O)c1ccccc1)c1ccccc1.[Cl][Rh][Cl]
inactive: [4] 94 % of control | [5] 95 % of control | dose: 100.0 mg/kg/injection, schedule: Q01DX009 (ip), vehicle: saline 89 % of control | [6] 95 % of control | dose: 200.0 mg/kg/injection, schedule: Q01DX009 (ip), vehicle: saline 95 % of control | [7] 94 % of control | dose: 400.0 mg/kg/injection, schedule: Q01DX009 (ip), vehicle: saline 97 % of control | [8] 94 % of control

COc1nsc(N)n1
inactive: [1] 100 % of control | [2] 104 % of control | [3] 91 % of control

O=C1C2OC2(c2ccccc2)C(=O)C2OC12c1ccccc1 (stereo unspecified)
inactive: dose: 75.0 mg/kg/injection, schedule: Q01DX001 (ip), vehicle: Klucel (hydroxypropylcellulose) (HPC) 96 % of control | dose: 150.0 mg/kg/injection, schedule: Q01DX001 (ip), vehicle: Klucel (hydroxypropylcellulose) (HPC) 87 % of control | dose: 300.0 mg/kg/injection, schedule: Q01DX001 (ip), vehicle: Klucel (hydroxypropylcellulose) (HPC) 91 % of control

CCOC(=O)c1cc(Br)cc(Br)c1N/N=[N+](\C)[O-]
inactive: dose: 50.0 mg/kg/injection, schedule: Q01DX009 (ip), vehicle: saline with Tween-80 105 % of control | [9] 98 % of control | [10] 110 % of control

[CH3][Sb]([CH3])([CH3])([O]C(=O)CBr)[O]C(=O)CBr
inactive: dose: 12.5 mg/kg/injection, schedule: Q04DX003 (ip), vehicle: saline with Tween-80 102 % of control | dose: 25.0 mg/kg/injection, schedule: Q04DX003 (ip), vehicle: saline with Tween-80 87 % of control | dose: 50.0 mg/kg/injection, schedule: Q04DX003 (ip), vehicle: saline with Tween-80 91 % of control

CC(C)(C)C1CC(Cl)C(=O)C(Cl)C1 (stereo unspecified)
inactive: [11] 104 % of control | [6] 96 % of control | [12] 94 % of control | [7] 112 % of control | [13] 88 % of control | [8] 94 % of control

O=[N+]([O-])c1cccc(S(=O)(=O)NNc2cccc(C(F)(F)F)c2)c1
inactive: dose: 100.0 mg/kg/injection, schedule: Q04DX003 (ip), vehicle: Klucel (hydroxypropylcellulose) (HPC) 99 % of control | dose: 200.0 mg/kg/injection, schedule: Q04DX003 (ip), vehicle: Klucel (hydroxypropylcellulose) (HPC) 94 % of control | dose: 400.0 mg/kg/injection, schedule: Q04DX003 (ip), vehicle: Klucel (hydroxypropylcellulose) (HPC) 89 % of control

O=C(Nc1ccc(NC2=NCCN2)cc1)c1cc(C(=O)Nc2ccc(NC3=NCCN3)cc2)cc([N+](=O)[O-])c1
inactive: dose: 1.87 mg/kg/injection, schedule: Q01DX Z (ip), vehicle: saline 113 % of control | dose: 3.75 mg/kg/injection, schedule: Q01DX Z (ip), vehicle: saline 109 % of control | dose: 7.5 mg/kg/injection, schedule: Q01DX Z (ip), vehicle: saline 115 % of control | dose: 15.0 mg/kg/injection, schedule: Q01DX Z (ip), vehicle: methylcellulose (MC) 94 % of control | dose: 15.0 mg/kg/injection, schedule: Q01DX Z (ip), vehicle: saline 105 % of control

OCC[CH2][Pb]([c]1ccccc1)([c]1ccccc1)[c]1ccccc1
inactive: dose: 3.12 mg/kg/injection, schedule: Q04DX003 (ip), vehicle: Klucel (hydroxypropylcellulose) (HPC) 94 % of control | dose: 6.25 mg/kg/injection, schedule: Q04DX003 (ip), vehicle: Klucel (hydroxypropylcellulose) (HPC) 97 % of control

C=C(C)CNc1ccccc1
inactive: [9] 95 % of control | [14] 97 % of control | [10] 93 % of control | [15] 97 % of control | [16] 103 % of control

Cc1cc2c3ccccc3c3ccccc3c2nn1
inactive: [11] 103 % of control | [12] 101 % of control | [13] 100 % of control

COC(=O)N/N=C/c1cccnc1
inactive: dose: 100.0 mg/kg/injection, schedule: Q01DX009 (ip), vehicle: Klucel (hydroxypropylcellulose) (HPC) 103 % of control | dose: 200.0 mg/kg/injection, schedule: Q01DX009 (ip), vehicle: Klucel (hydroxypropylcellulose) (HPC) 103 % of control | dose: 400.0 mg/kg/injection, schedule: Q01DX009 (ip), vehicle: Klucel (hydroxypropylcellulose) (HPC) 111 % of control

[N-]=[N+]=NC(c1ccccc1)C(I)c1ccccc1 (stereo unspecified)
inactive: dose: 50.0 mg/kg/injection, schedule: Q01DX001 (ip), vehicle: saline 103 % of control | [11] 103 % of control | [12] 108 % of control | [13] 97 % of control

O=C1c2ccccc2C(=O)c2c(Sc3ccccc3)cccc21
inactive: [14] 96 % of control | [15] 98 % of control | [16] 95 % of control
